Reference: ChEMBL document CHEMBL5465560, “Selectivity Literature for EUbOPEN Chemogenomic Library” (2024)
Blank lines part the entries; values can stand above or below the compound they belong to.

Tests used:
[1] = biological target: T1, Serine/threonine-protein kinase Nek2 (Homo sapiens) (UniProt P51955); conditions: at 10 µM
T1 sequence (whole entry): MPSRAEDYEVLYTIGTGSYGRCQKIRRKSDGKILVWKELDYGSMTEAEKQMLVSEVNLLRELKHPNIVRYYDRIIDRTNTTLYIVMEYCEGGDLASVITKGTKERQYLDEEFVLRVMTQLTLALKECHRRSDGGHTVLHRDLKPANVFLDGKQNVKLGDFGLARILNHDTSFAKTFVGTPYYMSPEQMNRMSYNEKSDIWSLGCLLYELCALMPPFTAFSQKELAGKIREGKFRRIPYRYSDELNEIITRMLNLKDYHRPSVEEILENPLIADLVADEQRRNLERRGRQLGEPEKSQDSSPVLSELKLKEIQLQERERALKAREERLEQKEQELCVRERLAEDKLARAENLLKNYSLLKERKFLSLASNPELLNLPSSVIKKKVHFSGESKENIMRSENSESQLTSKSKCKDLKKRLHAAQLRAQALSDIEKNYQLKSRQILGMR

[2] = biological target: Serine/threonine-protein kinase MRCK alpha (Homo sapiens) (UniProt Q5VT25); conditions: at 10 µM
[3] = biological target: Serine/threonine-protein kinase MRCK beta (Homo sapiens) (UniProt Q9Y5S2); conditions: at 10 µM
[4] = biological target: cAMP-dependent protein kinase catalytic subunit alpha (Homo sapiens, UniProt P17612); assay: Selectivity interaction (Millipore kinase profiler) EUB0000124b PRKACA; conditions: at 10 µM
[5] = biological target: 5'-AMP-activated protein kinase catalytic subunit alpha-1 (Homo sapiens, UniProt Q13131); assay: Selectivity interaction (ActivX KiNativ screen (kinase selectivity in THP-1 cell lysates)) EUB0000639a PRKAA1; format: subcellular; conditions: lysate, at 0.01 µM
[6] = biological target: Mitogen-activated protein kinase 9 (Homo sapiens, UniProt P45984); assay: Selectivity interaction (ActivX KiNativ screen (kinase selectivity in THP-1 cell lysates)) EUB0000639a MAPK9; format: subcellular; conditions: lysate, at 0.2 µM
Mu-type opioid receptor = Mu-type opioid receptor (Homo sapiens, UniProt P35372); assay: Selectivity interaction (Opioid Mu GTPgS agonist assay ) EUB0000877a OPRM1
[7] = biological target: Glycogen synthase kinase-3 beta (Homo sapiens, UniProt P49841)
[8] = biological target: LIM domain kinase 1 (Homo sapiens) (UniProt P53667); assay: Selectivity interaction (KinomeScan (DiscoverX)) EUB0000595a LIMK1; conditions: at 10 µM
[9] = biological target: Ribosomal protein S6 kinase alpha-2 (Homo sapiens) (UniProt Q15349); assay: Selectivity interaction (KinomeScan (DiscoverX)) EUB0000595a RPS6KA2; conditions: at 10 µM
[10] = biological target: Ribosomal protein S6 kinase alpha-1 (Homo sapiens, UniProt Q15418); assay: Selectivity interaction (ProQinase) EUB0000171b RPS6KA1
[11] = biological target: Amine oxidase [flavin-containing] B (Homo sapiens, UniProt P27338); assay: Selectivity interaction (Eurofins safety panel) EUB0001564a MAOB; conditions: at 10 µM
[12] = biological target: Tyrosine-protein kinase CSK (Homo sapiens) (UniProt P41240); assay: Selectivity interaction (Upstate Kinase Profiler service (Millipore)) EUB0000056c CSK; conditions: at 1 µM
[13] = biological target: Serine/threonine-protein kinase SBK1 (Homo sapiens) (UniProt Q52WX2); assay: Selectivity interaction (KinomeScan (DiscoverX)) EUB0000045b SBK1; conditions: at 1 µM
[14] = biological target: Tyrosine-protein kinase CSK (Homo sapiens) (UniProt P41240); assay: Selectivity interaction (ActivX KiNativ screen (ex vivo kinase selectivity in human PBMCs)) EUB0001619a CSK; format: cell-based; conditions: PBMC, at 1 µM
[15] = biological target: Transient receptor potential cation channel subfamily M member 6 (Homo sapiens) (UniProt Q9BX84); assay: Selectivity interaction (KinomeScan (DiscoverX)) EUB0000618a TRPM6; conditions: at 10 µM
[16] = biological target: T2, Tyrosine-protein kinase Tec (Homo sapiens) (UniProt P42680); assay: Selectivity interaction (KinomeScan (DiscoverX)) EUB0000618a TEC; conditions: at 10 µM
T2 sequence (whole entry): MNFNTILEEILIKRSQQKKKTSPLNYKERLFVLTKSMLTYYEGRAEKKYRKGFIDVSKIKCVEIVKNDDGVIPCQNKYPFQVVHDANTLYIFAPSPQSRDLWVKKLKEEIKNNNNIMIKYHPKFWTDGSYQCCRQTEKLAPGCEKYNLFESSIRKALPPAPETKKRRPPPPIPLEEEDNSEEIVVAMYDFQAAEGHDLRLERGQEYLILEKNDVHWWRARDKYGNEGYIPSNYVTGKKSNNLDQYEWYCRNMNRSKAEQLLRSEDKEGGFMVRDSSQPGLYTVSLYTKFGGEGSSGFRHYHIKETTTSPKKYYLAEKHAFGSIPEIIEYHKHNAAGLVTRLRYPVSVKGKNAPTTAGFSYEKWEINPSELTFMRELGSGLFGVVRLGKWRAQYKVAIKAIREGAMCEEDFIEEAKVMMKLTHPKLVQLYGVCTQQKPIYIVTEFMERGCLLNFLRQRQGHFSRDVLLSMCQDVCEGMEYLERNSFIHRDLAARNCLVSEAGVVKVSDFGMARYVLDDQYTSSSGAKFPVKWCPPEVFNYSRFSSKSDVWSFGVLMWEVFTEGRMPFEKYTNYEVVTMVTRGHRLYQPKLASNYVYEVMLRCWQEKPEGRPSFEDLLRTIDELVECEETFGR

[17] = biological target: T3, Muscarinic acetylcholine receptor M1 (Homo sapiens) (UniProt P11229); assay: Selectivity interaction (Safety Panel 44tm (Eurofins)) EUB0000162b CHRM1; conditions: at 10 µM
T3 sequence (whole entry): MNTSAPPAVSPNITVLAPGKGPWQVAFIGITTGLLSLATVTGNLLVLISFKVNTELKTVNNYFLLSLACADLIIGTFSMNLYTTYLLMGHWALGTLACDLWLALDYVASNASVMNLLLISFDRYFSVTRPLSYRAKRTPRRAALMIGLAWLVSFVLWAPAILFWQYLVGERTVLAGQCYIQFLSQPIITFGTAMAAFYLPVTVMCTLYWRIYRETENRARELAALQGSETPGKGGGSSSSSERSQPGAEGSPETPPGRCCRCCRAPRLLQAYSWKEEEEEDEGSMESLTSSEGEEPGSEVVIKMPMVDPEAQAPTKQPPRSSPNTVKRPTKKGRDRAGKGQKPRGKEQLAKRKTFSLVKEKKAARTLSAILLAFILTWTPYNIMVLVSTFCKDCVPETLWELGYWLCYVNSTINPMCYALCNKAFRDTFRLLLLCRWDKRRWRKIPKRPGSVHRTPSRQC

[18] = biological target: STE20/SPS1-related proline-alanine-rich protein kinase (Homo sapiens) (UniProt Q9UEW8); assay: Selectivity interaction (KinomeScan (DiscoverX)) EUB0000607a STK39; conditions: at 10 µM
[19] = biological target: Protein arginine N-methyltransferase 1 (Homo sapiens, UniProt Q99873); assay: Selectivity interaction (Methyltransferase screen (Scintillation proximity assays)) EUB0000255b PRMT1
Sequence of Protein arginine N-methyltransferase 1 (Q99873 whole entry, looked up): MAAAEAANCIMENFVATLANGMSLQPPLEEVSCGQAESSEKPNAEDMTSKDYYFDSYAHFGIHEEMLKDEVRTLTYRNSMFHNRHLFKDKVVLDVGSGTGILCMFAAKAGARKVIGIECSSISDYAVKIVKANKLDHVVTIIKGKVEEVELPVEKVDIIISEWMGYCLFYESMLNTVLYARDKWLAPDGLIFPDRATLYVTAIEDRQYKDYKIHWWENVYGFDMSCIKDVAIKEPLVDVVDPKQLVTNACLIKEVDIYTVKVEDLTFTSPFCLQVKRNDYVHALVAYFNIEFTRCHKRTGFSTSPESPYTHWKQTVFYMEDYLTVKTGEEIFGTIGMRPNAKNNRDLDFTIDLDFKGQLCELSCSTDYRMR

Sequence of Ribosomal protein S6 kinase alpha-1 (Q15418 whole entry): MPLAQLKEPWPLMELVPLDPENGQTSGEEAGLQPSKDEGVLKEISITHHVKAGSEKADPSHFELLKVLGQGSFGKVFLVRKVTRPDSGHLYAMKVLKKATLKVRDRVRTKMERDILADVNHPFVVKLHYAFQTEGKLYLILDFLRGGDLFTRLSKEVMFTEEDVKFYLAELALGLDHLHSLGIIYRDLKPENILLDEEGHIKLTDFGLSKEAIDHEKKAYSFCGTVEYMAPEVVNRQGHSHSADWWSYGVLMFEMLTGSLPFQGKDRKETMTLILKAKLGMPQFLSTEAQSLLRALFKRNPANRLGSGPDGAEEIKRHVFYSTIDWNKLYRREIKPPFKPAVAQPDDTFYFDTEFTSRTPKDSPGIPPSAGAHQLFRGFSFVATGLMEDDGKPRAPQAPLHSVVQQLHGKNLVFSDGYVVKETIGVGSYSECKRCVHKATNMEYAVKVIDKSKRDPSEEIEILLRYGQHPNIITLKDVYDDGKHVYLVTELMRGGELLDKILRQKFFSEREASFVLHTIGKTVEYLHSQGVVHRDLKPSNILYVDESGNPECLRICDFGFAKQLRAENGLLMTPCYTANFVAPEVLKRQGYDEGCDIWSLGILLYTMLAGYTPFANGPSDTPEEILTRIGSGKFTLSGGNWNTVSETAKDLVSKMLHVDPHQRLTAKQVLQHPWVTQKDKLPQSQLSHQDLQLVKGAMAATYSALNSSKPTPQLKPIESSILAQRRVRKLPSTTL
Sequence of Tyrosine-protein kinase CSK (Homo sapiens) (P41240 2-450 limits assumed): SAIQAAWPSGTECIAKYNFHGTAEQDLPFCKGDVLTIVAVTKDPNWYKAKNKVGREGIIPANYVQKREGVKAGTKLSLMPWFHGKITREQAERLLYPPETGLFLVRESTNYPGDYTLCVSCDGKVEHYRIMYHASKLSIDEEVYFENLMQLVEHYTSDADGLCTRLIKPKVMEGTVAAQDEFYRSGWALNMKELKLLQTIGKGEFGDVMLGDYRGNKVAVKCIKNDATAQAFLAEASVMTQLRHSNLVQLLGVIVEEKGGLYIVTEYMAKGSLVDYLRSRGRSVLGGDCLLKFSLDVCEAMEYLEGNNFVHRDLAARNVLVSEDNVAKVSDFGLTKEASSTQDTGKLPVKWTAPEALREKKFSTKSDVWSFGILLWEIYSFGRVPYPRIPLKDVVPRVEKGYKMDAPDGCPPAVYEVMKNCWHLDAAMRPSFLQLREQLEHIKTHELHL
Sequence of Amine oxidase [flavin-containing] B (P27338 whole entry): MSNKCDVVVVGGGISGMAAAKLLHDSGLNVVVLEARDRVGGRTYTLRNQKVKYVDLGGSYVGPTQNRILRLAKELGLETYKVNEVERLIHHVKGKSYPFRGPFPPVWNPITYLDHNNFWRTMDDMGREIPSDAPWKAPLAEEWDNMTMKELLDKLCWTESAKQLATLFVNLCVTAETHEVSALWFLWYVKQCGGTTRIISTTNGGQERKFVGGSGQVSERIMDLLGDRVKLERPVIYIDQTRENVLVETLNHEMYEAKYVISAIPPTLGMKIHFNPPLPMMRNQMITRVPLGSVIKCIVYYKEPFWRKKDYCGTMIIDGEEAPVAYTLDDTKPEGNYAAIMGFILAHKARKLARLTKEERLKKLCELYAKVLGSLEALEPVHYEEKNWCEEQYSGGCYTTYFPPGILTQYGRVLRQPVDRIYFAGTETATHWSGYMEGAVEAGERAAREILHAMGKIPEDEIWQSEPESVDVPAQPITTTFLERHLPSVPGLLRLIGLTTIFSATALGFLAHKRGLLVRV
Sequence of 5'-AMP-activated protein kinase catalytic subunit alpha-1 (Q13131 whole entry, looked up): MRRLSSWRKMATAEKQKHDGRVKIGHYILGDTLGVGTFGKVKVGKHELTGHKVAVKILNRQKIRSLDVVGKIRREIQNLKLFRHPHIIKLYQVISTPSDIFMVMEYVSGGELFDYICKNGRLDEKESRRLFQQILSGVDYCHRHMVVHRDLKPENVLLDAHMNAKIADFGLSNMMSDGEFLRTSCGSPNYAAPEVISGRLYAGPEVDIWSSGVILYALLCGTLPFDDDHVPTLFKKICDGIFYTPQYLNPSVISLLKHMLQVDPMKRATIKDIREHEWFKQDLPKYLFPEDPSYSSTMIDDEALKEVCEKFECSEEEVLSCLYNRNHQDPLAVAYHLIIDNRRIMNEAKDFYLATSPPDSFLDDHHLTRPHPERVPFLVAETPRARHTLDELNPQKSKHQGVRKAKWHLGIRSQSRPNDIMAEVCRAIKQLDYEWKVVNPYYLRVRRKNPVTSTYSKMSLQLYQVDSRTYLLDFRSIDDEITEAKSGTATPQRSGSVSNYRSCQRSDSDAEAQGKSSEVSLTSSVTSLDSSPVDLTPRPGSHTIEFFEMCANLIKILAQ
Sequence of LIM domain kinase 1 (Homo sapiens) (P53667 whole entry, looked up, the tested form may be a part): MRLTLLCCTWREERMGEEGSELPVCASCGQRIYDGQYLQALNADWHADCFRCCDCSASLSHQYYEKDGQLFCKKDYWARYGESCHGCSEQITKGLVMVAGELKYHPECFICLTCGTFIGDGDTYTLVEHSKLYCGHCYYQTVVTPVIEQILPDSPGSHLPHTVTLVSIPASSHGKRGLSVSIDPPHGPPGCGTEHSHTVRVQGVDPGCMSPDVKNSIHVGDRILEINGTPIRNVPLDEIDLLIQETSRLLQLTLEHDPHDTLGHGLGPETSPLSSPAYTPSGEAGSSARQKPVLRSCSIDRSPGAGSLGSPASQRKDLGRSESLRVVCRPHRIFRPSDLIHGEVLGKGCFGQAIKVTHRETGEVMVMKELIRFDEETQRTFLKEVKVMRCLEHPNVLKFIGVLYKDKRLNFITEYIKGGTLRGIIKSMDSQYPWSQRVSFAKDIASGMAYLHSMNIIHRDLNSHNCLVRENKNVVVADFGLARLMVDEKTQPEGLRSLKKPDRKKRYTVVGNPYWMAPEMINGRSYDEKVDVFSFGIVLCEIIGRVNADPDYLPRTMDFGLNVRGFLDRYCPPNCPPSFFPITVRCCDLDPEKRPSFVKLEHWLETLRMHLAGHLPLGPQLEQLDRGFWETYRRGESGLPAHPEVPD
Sequence of Serine/threonine-protein kinase MRCK beta (Homo sapiens) (Q9Y5S2 whole entry): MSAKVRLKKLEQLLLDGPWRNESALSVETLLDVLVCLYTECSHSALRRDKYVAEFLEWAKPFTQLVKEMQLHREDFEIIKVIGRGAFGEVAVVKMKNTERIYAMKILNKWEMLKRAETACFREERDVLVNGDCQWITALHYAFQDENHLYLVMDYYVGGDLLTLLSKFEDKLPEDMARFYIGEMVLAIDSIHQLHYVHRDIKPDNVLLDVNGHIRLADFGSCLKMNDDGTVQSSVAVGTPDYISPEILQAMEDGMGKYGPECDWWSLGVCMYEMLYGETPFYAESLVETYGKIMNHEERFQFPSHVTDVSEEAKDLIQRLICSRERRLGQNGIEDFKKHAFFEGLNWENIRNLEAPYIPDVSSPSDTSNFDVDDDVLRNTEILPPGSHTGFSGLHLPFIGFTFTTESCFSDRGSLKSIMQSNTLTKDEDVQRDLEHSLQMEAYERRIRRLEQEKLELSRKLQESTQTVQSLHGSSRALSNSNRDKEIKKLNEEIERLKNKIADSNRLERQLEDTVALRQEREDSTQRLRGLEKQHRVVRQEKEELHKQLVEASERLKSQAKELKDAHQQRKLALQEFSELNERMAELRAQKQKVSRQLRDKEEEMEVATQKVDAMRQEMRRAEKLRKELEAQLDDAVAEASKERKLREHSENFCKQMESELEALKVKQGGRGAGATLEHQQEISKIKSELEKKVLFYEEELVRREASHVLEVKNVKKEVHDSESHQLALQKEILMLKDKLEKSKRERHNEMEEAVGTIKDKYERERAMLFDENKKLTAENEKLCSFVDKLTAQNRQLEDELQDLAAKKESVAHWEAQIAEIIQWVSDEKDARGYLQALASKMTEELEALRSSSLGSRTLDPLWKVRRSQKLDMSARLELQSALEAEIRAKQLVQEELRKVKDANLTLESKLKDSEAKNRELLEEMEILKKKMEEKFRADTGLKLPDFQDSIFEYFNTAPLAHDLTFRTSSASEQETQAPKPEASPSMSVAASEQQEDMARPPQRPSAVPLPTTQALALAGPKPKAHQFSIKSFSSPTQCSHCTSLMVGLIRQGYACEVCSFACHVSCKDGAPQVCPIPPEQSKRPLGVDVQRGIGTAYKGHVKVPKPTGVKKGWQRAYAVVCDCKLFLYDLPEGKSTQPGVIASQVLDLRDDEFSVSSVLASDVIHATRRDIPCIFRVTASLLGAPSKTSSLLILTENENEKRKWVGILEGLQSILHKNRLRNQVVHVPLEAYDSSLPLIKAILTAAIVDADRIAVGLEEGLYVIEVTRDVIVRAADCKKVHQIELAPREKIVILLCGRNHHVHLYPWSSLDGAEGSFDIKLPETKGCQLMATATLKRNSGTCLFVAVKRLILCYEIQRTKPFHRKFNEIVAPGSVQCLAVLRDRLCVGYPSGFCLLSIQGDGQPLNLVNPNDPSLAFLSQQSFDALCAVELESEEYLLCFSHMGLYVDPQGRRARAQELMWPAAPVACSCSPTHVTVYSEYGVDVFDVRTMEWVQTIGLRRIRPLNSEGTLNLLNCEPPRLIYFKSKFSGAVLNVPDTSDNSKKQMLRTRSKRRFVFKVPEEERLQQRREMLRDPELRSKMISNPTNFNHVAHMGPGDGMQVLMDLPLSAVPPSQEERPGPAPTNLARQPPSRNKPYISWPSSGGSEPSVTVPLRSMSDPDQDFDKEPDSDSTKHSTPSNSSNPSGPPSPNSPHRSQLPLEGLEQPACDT

SMILES: Cc1cc([C@@H](C)Nc2ccccc2C(=O)O)c2nc(N3CCOCC3)cc(=O)n2c1 [AZD-6482]
- % of control [1]: 71%
- % of control [2]: 96%
- % of control [3]: 100%

- % of control [4]: 98%
SMILES: CC(=O)Nc1cccc(-n2c(=O)n(C3CC3)c(=O)c3c(Nc4ccc(I)cc4F)n(C)c(=O)c(C)c32)c1

- % of inhibition [5]: 14.5%
- % of inhibition [6]: -0.3%
SMILES: CC[C@@H]1[C@H](F)C(=O)N[C@@H]1COc1nccc2cc(C(N)=O)c(OC)cc12 [ZIMLOVISERTIB]

- IC50 (Mu-type opioid receptor): > 30 µM
SMILES: CCC(=O)N1CC[C@H](Nc2ncnc3c2CN(c2cnc(OC)c(C(F)(F)F)c2)CC3)C1 [LENIOLISIB]

- IC50 [7]: > 10 µM
SMILES: CCc1cccc(CC)c1NC(=O)c1nn(C)c2c1CCc1cnc(Nc3ccc(C(=O)NC4CCN(C)CC4)cc3OC(F)(F)F)nc1-2

SMILES: COCC(=O)NC/C=C/c1ccc2ncnc(Nc3ccc(Oc4ccc(C)nc4)c(C)c3)c2c1 [CP-724714]
- % of control [8]: 93%
- % of control [9]: 78%

- % of control ([10]; at 1 µM): 82%
- % of control ([10]; at 5 µM): 64%
SMILES: C=CC(=O)Nc1cccc(C(=O)Nc2ccc(Nc3cc(-c4[nH]c(SC)nc4C)ccn3)cc2)c1

SMILES: CC[C@@H](Nc1c(C#N)c(-c2ccc(-c3cccc(C)c3F)cc2)nc2cnccc12)C(=O)O [BAY-091]
- % of inhibition [11]: 81%

- % of inhibition [12]: 5%
SMILES: Cc1ccc(-c2ccc3c(ccc4sc5c(c43)NC[C@@H](C)NC5=O)n2)cn1

SMILES: C=CC(=O)Nc1cc(-n2c(=O)ccc3cnc4ccc(-c5ccc(NS(C)(=O)=O)cc5)cc4c32)ccc1C
- % of control [13]: 4.6%

SMILES: N#Cc1cccc(-c2c[nH]c3ncnc(N4CCOCC4)c23)c1
- % of inhibition [14]: -2%

SMILES: O[C@H]1CC[C@H](Nc2ncc3nc(Nc4c(F)cc(F)cc4F)n([C@H]4CCOC4)c3n2)CC1
- % of control [15]: 100%
- % of control [16]: 100%

SMILES: CN(C)C(=O)Cn1cc(-c2ccc(-c3cncc4ccccc34)cc2)cn1
- % of control [17]: 87%

SMILES: CNC(=O)Nc1ccc(-c2nc(N3CC4CCC(C3)O4)c3cnn(C4CCC5(CC4)OCCO5)c3n2)cc1
- % of control [18]: 100%

SMILES: COCCN1CCC(c2cc(CN(C)C(=O)c3cccc(Oc4ccccc4)c3)ccn2)CC1
- % activity ([19]; at 1 µM): 82%
- % activity ([19]; at 10 µM): > 90%
